In brackets after ≈: the same amount, converted by molar mass.
Legend:
Apis mellifera = conditions: acute, mortality
Myriophyllum aquaticum = conditions: chronic/long-term; duration: 7 days; growth
Canidae = conditions: chronic; duration: 1 years; oral; Dog Other; body weight
Pimephales promelas = conditions: chronic/long-term; duration: 32 days
Folsomia candida = conditions: chronic/long-term; duration: 28 days
Daphnia magna = conditions: chronic/long-term; duration: 21 days
Colinus virginianus = conditions: mortality
Oncorhynchus mykiss = conditions: acute; duration: 96 hours; mortality
Typhlodromus pyri = experiment: LR50; higher = less toxic; conditions: not reported; mortality

`O=C1CC=C([O-])N=N1.[K+]` [Maleic hydrazide, potassium salt] showed an LD50 (Apis mellifera; dermal) of over 100 µg/piece and an LD50 (Apis mellifera; oral, unspecified) of over 100 µg/piece.
`O=c1ccc(=O)[nH][nH]1` [Maleic hydrazide] gave an NOEC (Myriophyllum aquaticum) of 3.2 mg/L, an LD50 (Rattus norvegicus; acute, oral, M/F, mortality) of over 2000 mg/kg and an NOAEL (Rattus norvegicus; chronic, duration: 2 years, body weight) of 25 mg/kg-day. It also gave an NOAEL (Rattus norvegicus; reproduction developmental, body weight) of 398 mg/kg-day, an NOAEL (Rattus norvegicus; short-term, duration: 28 days, inhalation) of 22 mg/kg-day and an NOAEL (Canidae) of 25 mg/kg-day. It also gave an NOEC (Pimephales promelas) of 9.6 mg/L, an NOEC (Folsomia candida) of 113 mg/kg and an NOEC (Daphnia magna) of 0.57 mg/L. The LD50 (Colinus virginianus; acute, oral) was over 1490 mg/kg, the NOEC (Colinus virginianus; chronic) was 542 mg/kg-day and the LC50 (Oncorhynchus mykiss) was 79.4 mg/L (≈ 708 µM). For the same molecule, the LR50 (Typhlodromus pyri) was under 3000 g/ha.
